The values that follow come from patent US20110166156A1, “Prodrugs for the Treatment of Schizophrenia and Bipolar Disease” (Alkermes, Inc., priority 2010, published 2011).

A short description of the data set: Pharmacokinetic evaluation of paliperidone prodrugs in rats, intramuscular administration (Study 1 and Study 2). The following applies: male rats, IM, milled crystalline suspension, plasma by LC-MS/MS; for Cmax: combined Study 1 and Study 2, compared in The FIGURE with the other prodrugs tested; for Tmax: combined Study 1 and Study 2, shown in The FIGURE. The class given is in vivo, Sprague-Dawley rats. The protocol:
Two PK studies were conducted using intramuscular (IM) administration in rats of water-insoluble paliperidone prodrugs and the results were combined in The FIGURE.
Animals: 18 Male Sprague-Dawley rats (Charles River Laboratories, Wilmington, Mass.) were used in the study. Three groups of 6 rats were used and are referred to in this study as Groups A, B and C. Rats were approximately 350-375 g at time of arrival. Rats are housed 2 per cage with ad libitum chow and water. Environmental conditions in the housing room: 64-67° F., 30% to 70% relative humidity, and 12:12-h light:dark cycle. All experiments were approved by the institutional animal care and use committee.
Pharmacokinetics study: Rats were dosed IM by means of a 23 gauge, 1 inch needle with 1 cc syringe 0.3 mL suspension was withdrawn from the vial containing the test compound in suspension. The rat was injected in the muscles of the hind limb after anesthesia with isoflurane. Blood samples were collected via a lateral tail vein after brief anesthesia with Isoflurane. A 27½ G needle and 1 cc syringe without an anticoagulant was used for the blood collection. Approximately 35 0 μL of whole blood was collected at each sampling time point of 6 hours, 24 hours and 2, 5, 7, 9, 12, 14, 21, 28, 35 days after administration. Once collected, whole blood was immediately transferred to tubes containing K2 EDTA, inverted 10-15 times and immediately placed on ice. The tubes were centrifuged for 2 minutes at >14,000 g's (11500 RPMs using Eppendorf Centrifuge 5417C, F45-30-11 rotor) at room temperature to separate plasma. Plasma samples were transferred to labeled plain tubes (MICROTAINER®) and stored frozen at <−70° C.
Data Analysis: Drug concentrations in plasma samples were analyzed by liquid chromatography-mass spectroscopy (LC-MS/MS) using appropriate parameters for each compound. Half-life of Paliperidone, maximal concentration (Cmax), time to maximal concentration (Tmax), and AUC were calculated by using WinNonlin version 5.2 software (Pharsight, St. Louis, Mo.).
Pharmacokinetics study: Rats were dosed IM by means of a 23 gauge, 1 in. needle with 1 cc syringe 0.3 mL suspension was withdrawn from the vial containing the test compound in suspension. The rat was injected in the muscles of the hind limb after anesthesia with isoflurane. Blood samples were collected via a lateral tail vein after brief anesthesia with Isoflurane. […]
Data Analysis: Drug concentrations in plasma samples were analyzed by liquid chromatography-mass spectroscopy (LC-MS/MS) using appropriate parameters for each compound. Half-life, maximal concentration, time to maximal concentration and AUC were calculated by using WinNonlin version 5.2 software (Pharsight, St. Louis, Mo.). […]

Structures are written as SMILES.

In the case of `CCCCCCCCCCCCCCCC(=O)OCOC1CCCn2c1nc(C)c(CCN1CCC(c3noc4cc(F)ccc34)CC1)c2=O` (stereo not shown) [Compound 157], the Cmax result is given as “lower than that of the other compounds” and the Tmax entry was “delayed”.

For `CCCCCCCCCCCCCCCC(=O)OC1CCCn2c1nc(C)c(CCN1CCC(c3noc4cc(F)ccc34)CC1)c2=O` (stereo not shown) [PP, Paliperidone Palmitate], the Cmax result is given as “lower than that of the other compounds” and the Tmax result was “delayed”.
